Test results: US20100311694A1, “Set of Geldanamycin Derivatives and Their Preparation Methods” (Institute of Medicinal Biotechnology, Chinese Academy of …, priority 2008, published 2010)

Key:
HBV = assay: Anti-HBV activity (HBV DNA in cell lysate, spot hybridization); assay type: cell-based; details: HBV DNA content of the cells, reagent solution changed every 4 days
Method: Test Procedure for Anti-HBV Activity
Using cell culture method, the preparation of the cells to be tested (100,000 cell's/mL) is inoculated into cell culture plate in 100 μl each well and the cells are cultured 24 h at 37° C. in 5% CO2. Tests are carried out when the cells grow into a monolayer. The target compounds as well as the controls are prepared into a series of solutions of appropriate concentrations using the culture medium and are added into 96 well culture plate respectively in 4 wells per one concentration. Then the reagent solution in each well is changed into the fresh reagent solution with the same concentration every 4 days. A cell control without reagent treatment is simultaneously is set up. The observation index is based upon the pathological changes of the cells by observing the degrees of the pathological changes of the cells under microscope every 8 days. […] Cell control without drug treatment is simultaneously is set up. The reagent solution or control medium in each well is changed into the fresh reagent solution or fresh medium respectively every 4 days. After cytolysis of the cells, HBV DNA is extracted from the cell lysis solution according to the molecular cloning technical procedure. The spots of different samples are hybridized and the A values of different hybridized spots are measured using autoradiograghic technique. The HBV DNA contents in the cell control as well as in the drug treated samples are calculated using the regression equations obtained from the standard curves to obtain half effective concentration values, the results are shown in Table 1.

HIV-1 = assay: Anti HIV-1 activity (HIV-1 P24 antigen in cell cultures); assay type: cell-based; details: 4 days after addition of the reagents
Method: Test Procedure of Anti HIV-1 Activity
8 reagent solutions of different diluted concentrations and positive control solutions are added into cell cultures in 96 well plate respectively. The sample of each diluted solutions is made duplicately and a control cell sample is also is set up. 100 μl of cell sample at a concentration of 2×10^5cells/ml is inoculated into the wells containing reagent in the plate. The cells samples are cultured in a saturated humidity culture chamber (at a 5% CO2 atmosphere) at 37° C. The pathological changes of cells are observed daily.

Structure (SMILES) | Activity of HBV inhibition IC50 (HBV) [µg/mL] | Activity of HIV inhibition IC50 (HIV-1) [µg/mL]
COC1C=CC=C(C)C(=O)NC2=CC(=O)C(NCc3ccccn3)=C(CC(C)CC(OC)C(O)C(C)C=C(C)C1OC(N)=O)C2=O (centres unmarked) [GM-W19] | 3.4 | 28.90
COC1C=CC=C(C)C(=O)NC2=CC(=O)C(NCc3cccnc3)=C(CC(C)CC(OC)C(O)C(C)C=C(C)C1OC(N)=O)C2=O (centres unmarked) [GM-W20] | 6.89 | 26.42
COC1C=CC=C(C)C(=O)NC2=CC(=O)C(NC3CCc4ccccc43)=C(CC(C)CC(OC)C(O)C(C)C=C(C)C1OC(N)=O)C2=O (centres unmarked) [GM-W21] | 10.4 | 58.97
COC1C=CC=C(C)C(=O)NC2=CC(=O)C(NCC3CCCCN3)=C(CC(C)CC(OC)C(O)C(C)C=C(C)C1OC(N)=O)C2=O (centres unmarked) [GM-W22] | 3.2 | 1.37
COC1C=CC=C(C)C(=O)NC2=CC(=O)C(NCC3CCCNC3)=C(CC(C)CC(OC)C(O)C(C)C=C(C)C1OC(N)=O)C2=O (centres unmarked) [GM-W23] | 0.32 | 0.46
COC1C=CC=C(C)C(=O)NC2=CC(=O)C(NCC(=N)N)=C(CC(C)CC(OC)C(O)C(C)C=C(C)C1OC(N)=O)C2=O (centres unmarked) [GM-W24] | 0.01 | 0.11
COC1C=CC=C(C)C(=O)NC2=CC(=O)C(NCCOCCO)=C(CC(C)CC(OC)C(O)C(C)C=C(C)C1OC(N)=O)C2=O (centres unmarked) [GM-W25] | 0.32 | 0.43
COC1C=CC=C(C)C(=O)NC2=CC(=O)C(NCCNCCO)=C(CC(C)CC(OC)C(O)C(C)C=C(C)C1OC(N)=O)C2=O (centres unmarked) [GM-W26] | 0.64 | 0.21
COC1C=CC=C(C)C(=O)NC2=CC(=O)C(NCCC3CCN(Cc4ccccc4)CC3)=C(CC(C)CC(OC)C(O)C(C)C=C(C)C1OC(N)=O)C2=O (centres unmarked) [GM-W27] | 3.9 | 13.81
COC1C=CC=C(C)C(=O)NC2=CC(=O)C(NCCC3OCCO3)=C(CC(C)CC(OC)C(O)C(C)C=C(C)C1OC(N)=O)C2=O (centres unmarked) [GM-W28] | 0.10 | 0.21
COC1C=CC=C(C)C(=O)NC2=CC(=O)C(NCC3OCCO3)=C(CC(C)CC(OC)C(O)C(C)C=C(C)C1OC(N)=O)C2=O (centres unmarked) [GM-W29] | 6.4 | 0.67
CCN(CCNC1=C2CC(C)CC(OC)C(O)C(C)C=C(C)C(OC(N)=O)C(OC)C=CC=C(C)C(=O)NC(=CC1=O)C2=O)c1cccc(C)c1 (centres unmarked) [GM-W30] | 5.6 | 10.89
COC1C=CC=C(C)C(=O)NC2=CC(=O)C(NCCOC(C)C)=C(CC(C)CC(OC)C(O)C(C)C=C(C)C1OC(N)=O)C2=O (centres unmarked) [GM-W31] | 0.32 | 0.32
COC1C=CC=C(C)C(=O)NC2=CC(=O)C(NCCc3cccnc3)=C(CC(C)CC(OC)C(O)C(C)C=C(C)C1OC(N)=O)C2=O (centres unmarked) [GM-W32] | 6.4 | 0.48
COC1C=CC=C(C)C(=O)NC2=CC(=O)C(NN3CCN(C)CC3)=C(CC(C)CC(OC)C(O)C(C)C=C(C)C1OC(N)=O)C2=O (centres unmarked) [GM-W35] | 4.36 | 3.48
COC1C=CC=C(C)C(=O)NC2=CC(=O)C(NCC(O)c3ccccc3)=C(CC(C)CC(OC)C(O)C(C)C=C(C)C1OC(N)=O)C2=O (centres unmarked) [GM-W36] | 0.02 | 0.29
COC1C=CC=C(C)C(=O)NC2=CC(=O)C(NC3CCNCC3)=C(CC(C)CC(OC)C(O)C(C)C=C(C)C1OC(N)=O)C2=O (centres unmarked) [GM-W37] | 1.32 | 1.43
COC1C=CC=C(C)C(=O)NC2=CC(=O)C(NC3CCN(c4ccncc4)CC3)=C(CC(C)CC(OC)C(O)C(C)C=C(C)C1OC(N)=O)C2=O (centres unmarked) [GM-W38] | 0.64 | 1.59
COC1C=CC=C(C)C(=O)NC2=CC(=O)C(NCCO)=C(CC(C)CC(OC)C(O)C(C)C=C(C)C1OC(N)=O)C2=O (centres unmarked) [GM-W42] | 0.01 | 0.091
